Test system: cancer cell line type 3 model
Assay: Circulating blasts, tumor development and survival in type 3 model
Format: in vivo
Conditions: type 3 cancer cell line
Text: FIG. 12. Frequency circulating blasts in cancer cell line type 3 model.

COc1cccc2c1C(=O)c1c(O)c3c(c(O)c1C2=O)C[C@@](O)(C(=O)CO)C[C@@H]3O[C@H]1C[C@H](N)[C@H](O)[C@H](C)O1 [doxorubicin]
tumor development: decrease in tumor development

Reference: patent US20250127805A1, “ALCOHOLIC FORMULATION WITH A MIXTURE OF ALKALOIDS, PRENOL LIPIDS AND FLAVONOIDS” (PONTIFICIA UNIVERSIDAD JAVERIANA, priority 2023, published 2025)
